Drawing on ChEMBL document CHEMBL1158222, “Antiinflammatory C-glucosyl chromone from Aloe barbadensis” (1996), this text covers Activity for two compounds.

Test [1] is filed under the species Mus musculus. The test can be described thus: Antiinflammatory activity against croton oil-induced ear inflammation in BALB/c mouse at 200 ug/ear after 6 to 24 hrs. The test is classed as functional, organism-based.
For test [2], the species on record is Mus musculus. The test can be described thus: Reduction in thymus weight in BALB/c mouse at 400 ug/ear. It counts as functional, organism-based.
The species entered for test [3] is Mus musculus. As to the kind of experiment: Reduction in thymus weight in BALB/c mouse at 200 ug/ear. It counts as functional. Further details: scale not given: the % may be the effect or the level left.

Calls of active or inactive are those of the source. The rule behind the calls is not given here.

As to `COc1cc(C)c2c(=O)cc(C[C@@H](C)O)oc2c1[C@@H]1O[C@H](CO)[C@@H](O)[C@H](O)[C@H]1OC(=O)/C=C/c1ccccc1`, the outcome in test [1] was Active. For the same compound, the outcome in test [2] was inactive.
Turning to `C[C@]12CCC(=O)C=C1CC[C@@H]1[C@@H]2[C@@H](O)C[C@@]2(C)[C@H]1CC[C@]2(O)C(=O)CO` [HYDROCORTISONE], in test [1], the result was Active. Besides, the Activity in test [3] was found to be 50%.
